Test system: transformant cell line 61-33γ (host YB2/0) producing a chimeric anti-GD3 antibody
Experiment: Fed-batch culture of antibody-producing cells in Q10-containing medium (Example 2)
Type: cell-based, rat
Conditions: Q10-added culture, 50 μmol/L Q10 dissolved in Tween 80, fed-batch culture 11 days
Protocol: The following fed-batch culture was performed with transformant cell line 61-33γ (FERM BP-7325) which was obtained by using hybridoma cell line YB2/0 derived from a rat myeloma cell line as a host cell and produces a chimeric anti-GD3 antibody.
In a T-225 cm^2 flask charged with 30 mL of a serum-free medium (Hybridoma-SFM; manufactured by Invitrogen Corporation), the cells were inoculated to a cell density of 3×10^5 cells/mL, followed by stationary culture in a 5%-CO2 incubator at 37° C. for 3 days.
On the completion of culturing, the resulting cells were inoculated in a 1-liter spinner flask (manufactured by Shibata Hario, Co., Ltd.) containing 0.7 liter of Hybridoma-SFM to 3×10^5 cells/ml. While adjusting the liquid culture to pH 7.1 ±0.1 and the dissolved oxygen concentration to 3±0.2 ppm, culturing was carried out at 37° C. for 11 days under the condition of stirring at 50 rpm. Aeration was carried out via a porous polytetrafluoroethylene tube arranged in the spinner flask, and a mixture gas of air, oxygen and carbon dioxide was supplied. Additionally, the pH was controlled by changing the ratio of air and carbon dioxide and by feeding 1 mol/L sodium carbonate solution. Furthermore, the dissolved oxygen concentration was controlled by changing the ratio of air and oxygen. […]

COC1=C(OC)C(=O)C(C/C=C(\C)CC/C=C(\C)CC/C=C(\C)CC/C=C(\C)CC/C=C(\C)CC/C=C(\C)CC/C=C(\C)CC/C=C(\C)CC/C=C(\C)CCC=C(C)C)=C(C)C1=O [Q10]
cumulative number of cells on the completion of culturing (Q10-free culture 2.97×10^7): 3.98×10^7 cells/ml×days
relative specific antibody production rate (Q10-free culture = 100%): 137.1%

— patent US20050175599A1, “Process for producing substance” (Kyowa Hakko Kogyo Co., Ltd., priority 2001, published 2005)
